Values quoted from earlier work in US20040138299A1, “Solid pharmaceutical composition comprising 4-cyano-trifluoro-3(4-fluorophenyl-sulphonyl)-2hydroxy-methylpropiono-m toluidide and pvp” (priority 2001, published 2004).

Settings: conventional tablet doses above 300 mg

CC(O)(CS(=O)(=O)c1ccc(F)cc1)C(=O)Nc1ccc(C#N)c(C(F)(F)F)c1 (stereo not drawn) [bicalutamide, 4′-cyano-α′,α′,α′-trifluoro-3-(4-fluorophenylsulphonyl)-2-hydroxy-2-methylpropiono-m-toluidide]
systemic exposure at high dose: no further significant increase in systemic exposure
